How the values were obtained:
CDK1/CyclinB = CDK1/CyclinB (Homo sapiens (Human), UniProt P06493); assay: CDK kinase activity assay (LANCE TR-FRET, ULight-4E-BP1 substrate); type: biochemical; details: 60 minutes incubation
Protocol: (§1) The CDK kinase used in this experiment: CDK4/CyclinD1 (invitrogen, Item No: PV4400); CDK6/CyclinD1 (invitrogen, Item No: PV4401); CDK1/CyclinB (invitrogen, Item No: PV3292).
(§2) Reagents used: Substrate is ULight-4E-BP1 (PerkinElmer, Item No: TRF0128); antibody is Eu-labeledanti-phospho-eIF4E-bindingprotein1 (Thr37/46) (Perkin-Elmer, Item No: TRF0216).
(§3) The test compound was dissolved in dimethyl sulfoxide and the solution was diluted to each concentration gradient with a buffer (50 mM HEPES, 10 mM MgCl2, 1 mM EGTA, 2 mM DTT and 0.01% Tween20) according to the test needs, the concentration of dimethyl sulfoxide was 4%. The buffer was then used to dilute ATP and the substrate ULight-4E-BP1 to prepare the mixture of 800 μM ATP and 200 nM substrate for further use. 2.5 μL of mixture of substrate and ATP or 2.5 μL of substrate was added to the wells, and then 2.5 μL of compound or 4% buffer of dimethyl sulfoxide was added, finally 5 μL of enzyme (final concentration was 0.66 μg/mL) was added, incubated avoiding light at room temperature for 60 minutes. 5 μL of EDTA stop buffer (final concentration was […]) diluted with 1×detectionbuffer (LANCEDetectionBuffer, 10×, PerkinElmer, CR97-100) was added to each well, and then 5 μL of antibody (final concentration was 2 nM) diluted with 1×detectionbuffer was added, incubated avoiding light at room temperature for 60 minutes. Perkin Elmer EnVision® TRFRETmode (Excitation wavelength: 320 nm, emission wavelength: 615 nm and 665 nm) was used to measure plates.
(§4) The inhibition rate of the sample was determined by the following formula: […]
(§5) IC50 values were calculated using GraphPadPrism software.

CDK4/CyclinD1 = CDK4/CyclinD1 (Homo sapiens (Human), UniProt P11802); assay: as above; type: biochemical; details: CDK4/CyclinD1, 60 minutes incubation
Chain of CDK4/CyclinD1 (P11802 whole entry): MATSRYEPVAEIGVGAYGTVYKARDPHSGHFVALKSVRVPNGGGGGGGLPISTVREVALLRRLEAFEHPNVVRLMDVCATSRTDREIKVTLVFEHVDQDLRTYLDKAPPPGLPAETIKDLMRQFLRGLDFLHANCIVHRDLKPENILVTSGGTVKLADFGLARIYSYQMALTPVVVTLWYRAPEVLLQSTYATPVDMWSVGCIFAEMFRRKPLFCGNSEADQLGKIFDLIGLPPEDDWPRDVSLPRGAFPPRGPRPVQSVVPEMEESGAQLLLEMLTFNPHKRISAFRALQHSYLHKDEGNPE
Chain of CDK4/CyclinD1 (P24385 whole entry partner): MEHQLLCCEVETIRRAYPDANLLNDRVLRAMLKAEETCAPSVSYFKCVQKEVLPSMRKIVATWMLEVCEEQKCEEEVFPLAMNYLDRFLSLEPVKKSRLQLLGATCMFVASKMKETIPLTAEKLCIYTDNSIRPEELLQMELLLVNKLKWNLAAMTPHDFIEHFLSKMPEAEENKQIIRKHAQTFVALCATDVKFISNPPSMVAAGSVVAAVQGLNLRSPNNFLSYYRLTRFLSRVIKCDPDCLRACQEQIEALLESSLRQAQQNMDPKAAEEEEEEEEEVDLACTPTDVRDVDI
Protocol: as §1, §2, §3, §4, §5

Colo205 cells = assay: Proliferation inhibitory activity against human colon cancer cell line Colo205 (CCK8); type: cell-based; details: COLO 205, 96 hours
Protocol: In vitro cell assay described below could determine the proliferation inhibitory activity against human colon cancer cell line of the test compounds, and their activities could be represented by IC50 value.
Colo205 cells (Chinese Academy of Sciences typical culture storage committee cell bank) were inoculated in 96-well culture plate with a suitable cell concentration of 2000 cells per hole, 140 μL of medium per well, then incubated in a carbon dioxide incubator at 37° C. overnight. 10 μL of different concentrations of the test compounds were added and reacted for 96 hours, and then the solvent control group (negative control) was set. The proliferation inhibitory activities against tumor cells of the test compounds were tested by CCK8 (CellCounting Kit-8, Item No: CK04, purchased from Tongren Chemical) method after 96 hours. The full-wavelength microplate reader SpectraMax190 was used for reading, the measurement wavelength was 450 nm.
as §4
IC50 value was calculated by four parameter regression using microplate reader with random software.

Chain of CDK1/CyclinB (P06493 whole entry): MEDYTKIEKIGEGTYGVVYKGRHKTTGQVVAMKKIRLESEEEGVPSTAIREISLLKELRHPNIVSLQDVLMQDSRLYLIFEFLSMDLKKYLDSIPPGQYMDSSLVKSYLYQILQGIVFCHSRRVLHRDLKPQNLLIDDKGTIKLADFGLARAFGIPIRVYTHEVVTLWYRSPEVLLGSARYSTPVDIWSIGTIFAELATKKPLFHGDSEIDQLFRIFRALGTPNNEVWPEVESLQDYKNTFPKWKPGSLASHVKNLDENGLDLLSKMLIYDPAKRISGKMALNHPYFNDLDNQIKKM
Chain of CDK1/CyclinB (P14635 whole entry partner): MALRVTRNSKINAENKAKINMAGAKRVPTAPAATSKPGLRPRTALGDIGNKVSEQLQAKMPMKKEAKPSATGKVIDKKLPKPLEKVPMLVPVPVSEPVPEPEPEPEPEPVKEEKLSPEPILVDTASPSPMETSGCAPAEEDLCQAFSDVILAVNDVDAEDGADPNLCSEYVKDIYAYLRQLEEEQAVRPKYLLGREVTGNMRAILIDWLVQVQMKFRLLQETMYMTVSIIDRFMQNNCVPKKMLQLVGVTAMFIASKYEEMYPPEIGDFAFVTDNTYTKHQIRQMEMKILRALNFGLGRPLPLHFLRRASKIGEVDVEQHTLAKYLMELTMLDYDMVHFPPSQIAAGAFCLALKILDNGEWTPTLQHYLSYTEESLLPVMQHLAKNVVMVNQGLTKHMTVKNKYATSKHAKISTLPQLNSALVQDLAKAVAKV

Row | Structure (SMILES) | IC50 (CDK1/CyclinB) | IC50 (CDK4/CyclinD1) | IC50 (Colo205 cells)
1 | O=C(c1cc2cnc(Nc3ccc(N4CCNCC4)cn3)nc2n1N1CCCCC1)N1CCCC1 [Example 23, (2-((5-(piperazin-1-yl)pyridin-2-yl)amino)-7-(piperidin-1-yl)-7H-pyrrolo[2,3-d]pyrimidin-6-yl)-pyrrolidin-1-ylmethanone] | > 500 nM | < 100 nM | > 2000 nM
2 | CN1CCN(c2ccc(Nc3ncc4cc(C(=O)N5CCCC5)n(N5CCCCC5)c4n3)nc2)CC1 [Example 21, (2-((5-(4-methylpiperazin-1-yl)pyridin-2-yl)amino)-7-(piperidin-1-yl)-7H-pyrrolo[2,3-d]pyrimidin-6-yl)-pyrrolidin-1-ylmethanone] | > 500 nM | < 100 nM | > 2000 nM
3 | CN(C)C(=O)c1cc2cnc(Nc3ccc(N4CCNCC4)cn3)nc2n1N1CCCCCC1 [Example 15, 7-(hexamethyleneimin-1-yl)N,N-dimethyl-2-((5-(piperazin-1-yl)pyridin-2-yl)amino)-7H-pyrrolo[2,3-d]pyrimidine-6-carboxamide] | > 500 nM | < 100 nM | > 2000 nM
4 | CN(C)C(=O)c1cc2cnc(Nc3ccc(N4CCN(C(=O)OC(C)(C)C)CC4)cn3)nc2n1N1CCCC1 [Example 19, Tert-butyl 4-(6-((6-(dimethylcarbamoyl)-7-(pyrrolidin-1-yl)-7H-pyrrolo[2,3-d]pyrimidin-2-yl)amino)pyridin-3-yl)piperazine-1-carboxylate] | – | < 100 nM | > 2000 nM
5 | CCN(CC)C(=O)c1cc2cnc(Nc3ccc(N4CCNCC4)cn3)nc2n1N1CCCCC1 [Example 29, N,N-diethyl-2-((5-(piperazin-1-yl)pyridin-2-yl)amino)-7-(piperidin-1-yl)-7H-pyrrolo[2,3-d]pyrimidine-6-carboxamide] | > 500 nM | < 100 nM | > 2000 nM
6 | O=C(c1cc2cnc(Nc3ccc(N4CCNCC4)cn3)nc2n1N1CCCCC1)N1CCC1 [Example 17, Azetidin-1-yl-(2-((5-(piperazin-1-yl)pyridin-2-yl)amino)-7-(piperidin-1-yl)-7H-pyrrolo[2,3-d]pyrimidin-6-yl)methanone] | > 500 nM | < 100 nM | > 2000 nM
7 | CCN1CCN(c2ccc(Nc3ncc4cc(C(=O)N(C)C)n(N5CCCCC5)c4n3)nc2)CC1 [Example 26, N,N-dimethyl-2-((5-(4-ethylpiperazin-1-yl)pyridin-2-yl)amino)-7-(piperidin-1-yl)-7H-pyrrolo[2,3-d]pyrimidine-6-carboxamide] | > 500 nM | < 100 nM | 500 to 2000 nM
8 | CNC(=O)c1cc2cnc(Nc3ccc(N4CCNCC4)cn3)nc2n1N1CCCCC1 [Example 18, N-methyl-2-((5-(piperazin-1-yl)pyridin-2-yl)amino)-7-(piperidin-1-yl)-7H-pyrrolo[2,3-d] pyrimidine-6-carboxamide] | > 500 nM | < 100 nM | 500 to 2000 nM
9 | CN(C)C(=O)c1cc2cnc(Nc3ccc(N4CCNCC4)cn3)nc2n1N1CCCCC1 [Example 13] | – | < 100 nM | 500 to 2000 nM
10 | CN(C)C(=O)c1cc2cnc(Nc3ccc(N4CCN(C(=O)OC(C)(C)C)CC4)cn3)nc2n1N1CCCCC1 [Example 12] | – | < 100 nM | > 2000 nM
11 | CN1CCN(c2ccc(Nc3ncc4cc(C(=O)N(C)C)n(N5CCOCC5)c4n3)nc2)CC1 [Example 22, N,N-dimethyl-2-((5-(4-methylpiperazin-1-yl)pyridin-2-yl)amino)-7-morpholino-7H-pyrrolo[2,3-d]pyrimidine-6-carboxamide] | – | 100 to 500 nM | –
12 | CN(C)C(=O)c1cc2cnc(Nc3ccc(N4CCOCC4)cn3)nc2n1N1CCCCC1 [Example 25, N,N-dimethyl-2-((5-morpholinopyridin-2-yl)amino)-7-(piperidin-1-yl)-7H-pyrrolo[2,3-d]pyrimidine-6-carboxamide] | > 500 nM | < 100 nM | > 2000 nM
13 | CN(C)C(=O)c1cc2cnc(Nc3ccc(N4CCNCC4)cn3)nc2n1N1CCCC1 [Example 24, N,N-dimethyl-2-((5-(piperazin-1-yl)pyridin-2-yl)amino)-7-(pyrrolidin-1-yl)-7H-pyrrolo[2,3-d]pyrimidine-6-carboxamide] | > 500 nM | < 100 nM | > 2000 nM
14 | CN1CCN(c2ccc(Nc3ncc4cc(C(=O)N5CCC5)n(N5CCCCC5)c4n3)nc2)CC1 [Example 16, Azetidin-1-yl-(2-((5-(4-methylpiperazin-1-yl)pyridin-2-yl)amino)-7-(piperidin-1-yl)-7H-pyrrolo[2,3-d]pyrimidin-6-yl)methanone] | > 500 nM | < 100 nM | 500 to 2000 nM
15 | CN(C)C(=O)c1cc2cnc(Nc3ccc(N4CCNCC4)cn3)nc2n1N1CCOCC1 [Example 28, N,N-dimethyl-2-((5-(piperazin-1-yl)pyridin-2-yl)amino)-7-morpholino-7H-pyrrolo[2,3-d]pyrimidine-6-carboxamide] | – | 100 to 500 nM | –
16 | C[C@@H]1CN(c2ccc(Nc3ncc4cc(C(=O)N(C)C)n(N5CCCCC5)c4n3)nc2)C[C@H](C)N1 [Example 27, 2-((5-((3S,5R)-3,5-dimethylpiperazin-1-yl)pyridin-2-yl)amino)-N,N-dimethyl-7-(piperidin-1-yl)-7H-pyrrolo[2,3-d]pyrimidine-6-carboxamide] | > 500 nM | < 100 nM | 500 to 2000 nM
17 | CN1CCN(c2ccc(Nc3ncc4cc(C(=O)N(C)C)n(N5CCCCC5)c4n3)nc2)CC1 [Example 14, N,N-dimethyl-2-((5-(4-methylpiperazin-1-yl)pyridin-2-yl)amino)-7-(piperidin-1-yl)-7H-pyrrolo[2,3-d]pyrimidine-6-carboxamide] | > 500 nM | < 100 nM | 500 to 2000 nM
18 | CN(C)C(=O)c1cc2cnc(Nc3ccc(N4CCNC(C)(C)C4)cn3)nc2n1N1CCCCC1 [Example 20, 2-((5-(3,3-dimethylpiperazin-1-yl)pyridin-2-yl)amino)-N,N-dimethyl-7-(piperidin-1-yl)-7H-pyrrolo[2,3-d]pyrimidine-6-carboxamide] | > 500 nM | < 100 nM | 500 to 2000 nM
